Laboratory results published in US20050208496A1, “Methods of testing for bronchial asthma or chronic obstructive pulmonary disease” (Genox Research, Inc., priority 2002, published 2005).

System: respiratory epithelial cells

IL-13: human IL-13 (Peprotech, Inc.) added to the medium at 50 ng/mL to stimulate respiratory epithelial cells
DD96 (31610_at) expression, fold change upon IL-13 stimulation (lot 1, Day 3, AI method): 6.3 fold | DKFZP564O0823 (41402_at) expression, fold change upon IL-13 stimulation (lot 1, Day 3, AI method): 5 fold | DKFZP566J091 (57197_at) expression fold change (lot 1, Day 3, AI method): 9.4 fold | DKFZp564N1116 (37784_at) expression, fold change upon IL-13 stimulation (lot 1, Day 3, AI method): 6.4 fold | DNAJA1 (276_at) expression fold change upon IL-13 stimulation (lot 1, Day 3, AI method): 2 fold | DPYD (38220_at) expression fold change upon IL-13 stimulation (lot 1, Day 3, AI method): 2.7 fold | EMILIN-2 (51628_at) expression fold change (lot 1, Day 3, AI method): 2.1 fold | FABP4 (38430_at) expression, fold change upon IL-13 stimulation (lot 1, Day 3, AI method): 3.8 fold | FBP1 (36495_at) expression fold change upon IL-13 stimulation (lot 1, Day 3, AI method): 3.2 fold | FETUB (32620_at) expression fold change (lot 1, Day 3, AI method): 3.7 fold | FETUB (33101_g_at) expression fold change (lot 1, Day 3, AI method): 2.2 fold | FLJ10261 (43366_at) expression fold change (lot 1, Day 3, AI method): 7.9 fold | FLJ22693 (53777_at) expression fold change (lot 1, Day 3, AI method): 2.8 fold | FUT10 (908_at) expression fold change upon IL-13 stimulation (lot 1, Day 3, AI method): 5.8 fold | G1P3 (1358_s_at) expression, fold change upon IL-13 stimulation (lot 1, Day 3, AI method): 7.1 fold | GADD45G (39154_at) expression fold change upon IL-13 stimulation (lot 1, Day 3, AI method): 3.1 fold | GBP5 (52615_at) expression fold change (lot 1, Day 3, AI method): 2.4 fold | GS3686 (36927_at) expression, fold change upon IL-13 stimulation (lot 1, Day 3, AI method): 5.7 fold | HAS3 (54604_at) expression fold change (lot 1, Day 3, AI method): 2.3 fold | HDAC9 (37483_at) expression fold change upon IL-13 stimulation (lot 1, Day 3, AI method): 4.1 fold | HLA-F (37420_i_at) expression, fold change upon IL-13 stimulation (lot 1, Day 3, AI method): 2.9 fold | HLA-F (49203_f_at) expression fold change (lot 1, Day 3, AI method): 2.4 fold | HS3ST1 (41556_s_at) expression fold change upon IL-13 stimulation (lot 1, Day 3, AI method): 3.4 fold | ICAMt (32640_at) expression fold change upon IL-13 stimulation (lot 1, Day 3, AI method): 6.5 fold | IFI27 (425_at) expression, fold change upon IL-13 stimulation (lot 1, Day 3, AI method): 3.8 fold | IFI27 (48864_at) expression fold change (lot 1, Day 3, AI method): 2.9 fold | IFI35 (464_s_at) expression, fold change upon IL-13 stimulation (lot 1, Day 3, AI method): 13.2 fold | IFI44 (37641_at) expression, fold change upon IL-13 stimulation (lot 1, Day 3, AI method): 5.9 fold | IFIT1 (915_at) expression, fold change upon IL-13 stimulation (lot 1, Day 3, AI method): 19.2 fold | IFIT1 (32814_at) expression, fold change upon IL-13 stimulation (lot 1, Day 3, AI method): 10.6 fold | IFIT4 (38584_at) expression, fold change upon IL-13 stimulation (lot 1, Day 3, AI method): 2.7 fold | IFITM1 (675_at) expression, fold change upon IL-13 stimulation (lot 1, Day 3, AI method): 10.7 fold | IL13RA2 (1016_s_at) expression fold change upon IL-13 stimulation (lot 1, Day 3, AI method): 10.2 fold | IL19 (47855_at) expression fold change (lot 1, Day 3, AI method): 4 fold | ILIRL1 (40322_at) expression, fold change upon IL-13 stimulation (lot 1, Day 3, AI method): 5.5 fold | IRF7 (36412_s_at) expression fold change (lot 1, Day 3, AI method): 4.9 fold | ISG15 (1107_s_at) expression, fold change upon IL-13 stimulation (lot 1, Day 3, AI method): 13.1 fold | ISG15 (38432_at) expression, fold change upon IL-13 stimulation (lot 1, Day 3, AI method): 23.7 fold | ISG20 (33304_at) expression, fold change upon IL-13 stimulation (lot 1, Day 3, AI method): 4.8 fold | KIAA0537 (33787_at) expression, fold change upon IL-13 stimulation (lot 1, Day 3, AI method): 7.5 fold | KIAA1268 (57050_at) expression fold change (lot 1, Day 3, AI method): 3.2 fold | KIAAI268 (59516_at) expression fold change (lot 1, Day 3, AI method): 4.1 fold | LAMP3 (37168_at) expression, fold change upon IL-13 stimulation (lot 1, Day 3, AI method): 6.3 fold | LOC57118 (51085_at) expression fold change (lot 1, Day 3, AI method): 2.4 fold | LOC64116 (40456_at) expression, fold change upon IL-13 stimulation (lot 1, Day 3, AI method): 2.2 fold | MDA5 (51920_at) expression fold change (lot 1, Day 3, AI method): 6.6 fold | MFHAS1 (50388_at) expression fold change (lot 1, Day 3, AI method): 2.3 fold | MICB (35937_at) expression, fold change upon IL-13 stimulation (lot 1, Day 3, AI method): 3.3 fold | MKP-L (38272_at) expression, fold change upon IL-13 stimulation (lot 1, Day 3, AI method): 2 fold | MMP7 (668_s_at) expression, fold change upon IL-13 stimulation (lot 1, Day 3, AI method): 2.6 fold | MX2 (879_at) expression fold change (lot 1, Day 3, AI method): 8.7 fold | MXI (37014_at) expression fold change (lot 1, Day 3, AI method): 12.3 fold | NCF2 (41038_at) expression fold change (lot 1, Day 3, AI method): 2.9 fold | NK4 (39119_s_at) expression fold change upon IL-13 stimulation (lot 1, Day 3, AI method): 4 fold | NOS2A (1948_f_at) expression fold change upon IL-13 stimulation (lot 1, Day 3, AI method): 5.3 fold | NOS2A (48918_at) expression fold change (lot 1, Day 3, AI method): 4.3 fold | OAF (39695_at) expression, fold change upon IL-13 stimulation (lot 1, Day 3, AI method): 3.4 fold | OAS1 (38388_at) expression fold change upon IL-13 stimulation (lot 1, Day 3, AI method): 6.2 fold | OAS1 (38389_at) expression fold change upon IL-13 stimulation (lot 1, Day 3, AI method): 4.5 fold | OAS2 (39263_at) expression fold change upon IL-13 stimulation (lot 1, Day 3, AI method): 5 fold | OSF-2 (1451_s_at) expression fold change upon IL-13 stimulation (lot 1, Day 3, AI method): 10.5 fold | PHKB (46459_at) expression fold change (lot 1, Day 3, AI method): 2 fold | PKD2 (38120_at) expression, fold change upon IL-13 stimulation (lot 1, Day 3, AI method): 2.8 fold | PLOD2 (34795_at) expression fold change upon IL-13 stimulation (lot 1, Day 3, AI method): 2.3 fold | PLS1 (39951_at) expression fold change (lot 1, Day 3, AI method): 2.5 fold | PLSCR1 (32775_r_at) expression fold change upon IL-13 stimulation (lot 1, Day 3, AI method): 2.9 fold | PSMB9 (38287_at) expression fold change upon IL-13 stimulation (lot 1, Day 3, AI method): 3.2 fold | RIG-1 (59215_at) expression fold change (lot 1, Day 3, AI method): 7.2 fold | SAMHD1 (34714_at) expression, fold change upon IL-13 stimulation (lot 1, Day 3, AI method): 3.4 fold | SCYB10 (431_at) expression fold change upon IL-13 stimulation (lot 1, Day 3, AI method): 5.2 fold | SCYB11 (35061_at) expression fold change upon IL-13 stimulation (lot 1, Day 3, AI method): 8.9 fold | SECTM1 (41045_at) expression, fold change upon IL-13 stimulation (lot 1, Day 3, AI method): 6.5 fold | SERPINB2 (37185_at) expression fold change (lot 1, Day 3, AI method): 2.1 fold | SERPINB4 (1549_s_at) expression fold change (lot 1, Day 3, AI method): 4.2 fold | SERPINB6 (34789_at) expression fold change (lot 1, Day 3, AI method): 2.2 fold | SIAT1 (41352_at) expression fold change upon IL-13 stimulation (lot 1, Day 3, AI method): 4.7 fold | SLC26A4, pendrin (36376_at) expression fold change (lot 1, Day 3, AI method): 18.8 fold | SSI-1 (41592_at) expression, fold change upon IL-13 stimulation (lot 1, Day 3, AI method): 5.6 fold | STAT1 (32860_g_at) expression fold change (lot 1, Day 3, AI method): 2.8 fold | STAT1 (33338_at) expression fold change (lot 1, Day 3, AI method): 9.7 fold | STAT1 (33339_g_at) expression fold change (lot 1, Day 3, AI method): 3.5 fold | TGM2 (38404_at) expression fold change upon IL-13 stimulation (lot 1, Day 3, AI method): 8.5 fold | THBS1 (115_at) expression fold change upon IL-13 stimulation (lot 1, Day 3, AI method): 10.4 fold | TSPAN-3 (38612_at) expression, fold change upon IL-13 stimulation (lot 1, Day 3, AI method): 2.2 fold | TXNRD1 (39425_at) expression fold change upon IL-13 stimulation (lot 1, Day 3, AI method): 2 fold | UBE2L6 (40505_at) expression fold change upon IL-13 stimulation (lot 1, Day 3, AI method): 3.3 fold | UFD1L (811_at) expression, fold change upon IL-13 stimulation (lot 1, Day 3, AI method): 2.3 fold | WARS (38121_at) expression fold change upon IL-13 stimulation (lot 1, Day 3, AI method): 3.5 fold | cig5 (38549_at) expression, fold change upon IL-13 stimulation (lot 1, Day 3, AI method): 10.1 fold | diubiquitin (39959_at) expression, fold change upon IL-13 stimulation (lot 1, Day 3, AI method): 21.3 fold | AA149682 (51925_at) expression fold change (lot 1, Day 3, IMM method): 2.4 fold | AA541787 (52622_at) expression fold change (lot 1, Day 3, IMM method): 2.6 fold | ADAM28 (35479_at) expression, fold change upon IL-13 stimulation (lot 1, Day 3, IMM method): 4.8 fold | AI565105 (54886_at) expression fold change (lot 1, Day 3, IMM method): 2.2 fold | AI659927 (54033_at) expression fold change (lot 1, Day 3, IMM method): 8.3 fold | AI989346 (52327_s_at) expression fold change (lot 1, Day 3, IMM method): 2.3 fold | ALOX15 (34636_at) expression, fold change upon IL-13 stimulation (lot 1, Day 3, IMM method): 69.2 fold | ARL7 (57151_at) expression fold change (lot 1, Day 3, IMM method): 3.2 fold | AW019985 (48826_s_at) expression fold change (lot 1, Day 3, IMM method): 6 fold | BAL (52167_at) expression fold change (lot 1, Day 3, IMM method): 3.6 fold | BRCA1 (626_s_at) expression fold change (lot 1, Day 3, IMM method): 7.6 fold | BST2 (39061_at) expression, fold change upon IL-13 stimulation (lot 1, Day 3, IMM method): 8.3 fold | C21orf11 (58957_at) expression fold change (lot 1, Day 3, IMM method): 6.2 fold | CDH6 (1620_at) expression fold change upon IL-13 stimulation (lot 1, Day 3, IMM method): 4.2 fold | CDH6 (57421_at) expression fold change (lot 1, Day 3, IMM method): 4.7 fold | CDH26 (46916_at) expression fold change (lot 1, Day 3, IMM method): 16 fold
